Values after ≈ are worked out from the molar mass of the structure shown. Each block holds one compound with its values, some of them ahead of it.
Experiments:
[1] = system: (lung)H460 cells; assay: MTT assay H460; format: cell-based; conditions: Homo sapiens, NCI-H460
Protocol: (§1) Cells. Human cancer cell lines were obtained from American Type Culture Collection: HTB-9 (bladder), HeLa-S3 (cervix), DU145 (prostate), H460 (lung), MCF-7 (breast), K562 (leukocytes), HCT116 (colon), HepG2 (liver), U2OS (bone), T98G (brain), SK-MEL-5 (Skin) and OVCAR-3 (ovary). The cells were grown in following culture media: HeLa-53, DU145, MCF-7, Hep-G2 and T98G are in MEN (Earle's salts); HTB-9, H460, K562 and OVCAR-3 in RPMI-1640; HCT-116 and U2OS in McCoy-5A. They are supplemented with 10% fetal calf serum, glutamine and antibiotics, and incubated in an incubator with 5% CO2 humidified at 37° C.
(§2) MTT Assay. The procedure for MTT assay followed the method described by Carmichael et al. (1987) with modifications. […] The formazan (product of the reduction of tetrazolium by viable cells) formed and was dissolved with DMSO and the O.D. at 490 nm, and was measured by an ELISA reader. The MTT level of the cells before drug-treatment was also measured (T0). The % cell-growth (% G) is calculated as: % G=(TD−T0/TC−T0)×100(1), where TC or TD represents O.D. readings of control or drug-treated cells. When T0>TD, then the cytotoxicity (LC) expressed as % of the control is calculated as: % LC=(TD−T0/T0)×100(2).

[2] = system: Fibronectin secretion from ES2 cells; assay: Fibronectin secretion (Western blot), ES2 cells; format: cell-based, human; conditions: for % inhibition of Fibronectin secretion: ES2 cells, 80 ug/ml
Protocol: Inhibition of Fibronectin secretion is physiological and the determination of its quantity is based on the following criteria: • 1. Fibronectin is secreted from viable cells. Only cell with over 85% viable cells after drug-treatment are employed in these experiments. The viable cells were determined by MTT assay. • 2. For comparison, the immuno-band intensity from each samples are normalized with cell mass. The cell mass was determined by the MTT assay and is assigned as a MTT unit for each cell sample.
Cells: ES2 cells were grew in T-25 flask with RPMI 1640 medium over night before drug-treatment. Drug-treatment: cells cultures were replaced with fresh RPMI medium with Xanifolia-Y (10 ug/ml final concentration) or DMSO (as control) at 0 hour. At 1, 2, 4, 8 and 24 hour, aliquot of culture medium was taken out for Fibronectin determination. Fibronectin was determined by Western blot with monoclonal antibody (SIGMA) specific to human Fibronectin only.
Drug-treatment: cells cultures were replaced with fresh RPMI medium containing Xanifolia-Y (10 ug/ml final concentration) or DMSO (as control) at 0 hour. At 4 hours (A) or 8 hour (B), culture medium was replaced with fresh culture medium without drug. At 2, 4, 8 and 24 hour, aliquot of culture medium was taken out for Fibronectin determination. Fibronectin (FN) was determined by Western blot with monoclonal antibody (SIGMA) specific only to human Fibronectin.
Drug-treatment: cells cultures were replaced with fresh RPMI medium containing Xanifolia-Y (10 ug/ml final concentration) or DMSO (as control) at 0 hour. At 2, and 18 hour, aliquot of culture medium was taken out for Fibronectin determination (Western blot method). Cell viability at 18 hours was determined by MTT assay. Cultures were replaced with RPMI medium with MTT and incubated for an hour. The formation of formazan was dissolved in DMSO and OD at 570 nm was measured.
Cells and Drug-treatment: same as previous experiments. After 7 or 24 hours, aliquot of culture medium was taken out for Fibronectin determination (Western blot method). Cell viability at 24 hours was determined by MTT assay.
Cells: ES2 cells were grew in RPMI 1640 medium over night before drug-treatment. Drug-treatment: cells cultures were replaced with fresh RPMI medium containing DMSO (as control) [D]; Xanifolia-Y (10 ug/ml) [Y]; or Paclitaxel 10 or 50 ng/ml [T10, ro T50]. After 24 hours, aliquot of culture medium was taken out for Fibronectin determination (Western blot method). Cell viability at 24 hours was determined by MTT assay.
The amount of Fibronectin secreted by cells into medium was determined by Western blot assay. The amount of Fibronectin secreted per cells basis was determined by dividing the Western-band intensity with the MTT unit.
Western Blot: Spent culture medium (0.6 ml) was mixed with SDS sample buffer (0.2 ml), boiled for 3 minutes before loading to SDS gel. Samples (60 ul/lane) were applied to a 6% SDS gel and electrophoresis was conducted with 100 volts for 2 hours. Protein was transferred to a nitrocellulose paper electrophoretically (30 min at 100 volts). The Western blot was incubated with the first antibody (mouse anti-FN, specific to human FN, SIGMA F0916) and second antibody (Anti-mouse IgG AP conjugated, Promega S3721). The immunobands were developed with BCIP/NBT color development system (Promega S3771).

[3] = system: Fibronectin secretion from skin SK-Mel-5 cells; assay: Fibronectin secretion (Western blot), SK-MEL-5 cells; format: cell-based, human; conditions: Homo sapiens, 10 ug/ml
[4] = system: Fibronectin secretion from bladder carcinoma cells (HTB-9); assay: Fibronectin secretion (Western blot), HTB-9 cells; format: cell-based, human; conditions: Homo sapiens, 10 ug/ml
[5] = system: ES2(ovarian) cells; assay: MTT assay ES2; format: cell-based, human; conditions: Homo sapiens, ES-2, ES2 cells; read-out: IC50
[6] = system: (Prostate) DU145; assay: MTT assay DU145; format: cell-based, human; conditions: Homo sapiens, DU-145, read-out: IC50
Protocol: as §1, §2

[7] = system: Fibronectin secretion from liver HepG2 cells; assay: Fibronectin secretion (Western blot), HepG2 cells; format: cell-based, human
[8] = system: Fibronectin secretion from brain glioblastoma T98G cells; assay: Fibronectin secretion (Western blot), T98G cells; format: cell-based, human; conditions: Homo sapiens, T98G, 10 ug/ml
[9] = system: (Liver) HepG2; assay: MTT assay HepG2; format: cell-based, human; conditions: Homo sapiens, read-out: IC50
Protocol: as §1, §2

[10] = system: Fibronectin secretion from lung carcinoma cells (H460); assay: Fibronectin secretion (Western blot), H460 cells; format: cell-based, human; conditions: Homo sapiens, NCI-H460, H460 cells, 10 ug/ml
[11] = system: (Breast)MCF7; assay: MTT assay MCF7; format: cell-based, human; conditions: Homo sapiens, read-out: IC50
Protocol: as §1, §2

[12] = system: (bladder)TB9 cells / HTB-9; assay: MTT assay bladder cells; format: cell-based, human; conditions: Homo sapiens; (bladder)TB9 cells; read-out: IC50
Protocol: as §1
(§3) MTT Assay. The procedure for MTT assay followed the method described by Carmichael et al. (1987) with modifications. The cells were seeded into a 96-well plate at concentration of 10,000/well for HTB-9, HeLa, H460, HCT116, T98G and OVCAR-3), 15,000/well for DU145, MCF-7, HepG2 and U2OS), and 40,000/well for K562 for 24 hours before drug-treatment. The cells were then exposed to the drugs for 48 hours (72 hours for HepG2 and U2OS, and 96 hours for MCF-7). After the drug-treatment, MTT (0.5 mg/mL) was added to cultures and incubated for an hour. The formazan (product of the reduction of tetrazolium by viable cells) formed and was dissolved with DMSO and the O.D. at 490 nm, and was measured by an ELISA reader. The MTT level of the cells before drug-treatment was also measured (T0). The % cell-growth (% G) is calculated as: % G=(TD−T0/TC−T0)×100(1), where TC or TD represents O.D. readings of control or drug-treated cells. When T0>TD, then the cytotoxicity (LC) expressed as % of the control is calculated as: % LC=(TD−T0/T0)×100(2).

[13] = system: (brain) T98G; assay: MTT assay T98G; format: cell-based; conditions: Homo sapiens
Protocol: as §1, §2

[14] = system: (Skin) SK-MELS; assay: MTT assay SK-MEL-5; format: cell-based, human; conditions: Homo sapiens, SK-MEL-5, read-out: IC50
Protocol: as §1, §2

[15] = system: tumor growth; assay: MTT anticancer activity of Y, X and hydrolysis products (FIG. 4C); format: cell-based
Protocol: as §3
(A) Alkaline Hydrolysis of Xanifolia-Y: 20 mg of Xanifolia-Y was dissolved in 0.5 mL of 1M NaOH. The solution was incubated in an 80° C. water bath for 4 hours. It was cooled to room temperature before being neutralized with 0.5 mL 1 N HCl (adjusted pH to about 3). The mixture was extracted with 2 mL 1-butanol 3 times. The butanol fractions were collected and lyophilized. The hydrolyzed saponin was further purified with HPLC in a C-18 column eluted with 25% acetonitrile.
(B) Acid Hydrolysis of Xanifolia-Y: 15 mg Xanifolia-Y was dissolved in 1 mL of Methanol. 1 mL of 2N HCl was then added. The mixture was refluxed in an 80° C. water bath for 5 hours. The solution was then neutralized by adding 2 mL of 1N NaOH (to a final pH 3-4). The aglycone was then extracted with ethylacetate 3 mL×3. The extracts were collected and pooled. Further isolation of aglycone (sugar-removed Xanifolia-Y) was achieved by HPLC with isocratic elution of 80% acetonitrile.

[16] = system: K562 cells membrane; assay: EM study of membrane structure; format: cell-based, human; conditions: 20 uM, 60 min
From the text: Xanifolia-Y has a potent hemolytic activity in red blood cells (FIG. 27). To study the effect of Xanifolia-Y on membrane structure, the morphology of cell membrane treated with Xanifolia-Y was examined with EM. […] Solvent DMSO and AKOH-Y (a derivative of Xanifolia-Y without the angeloyl group and it has no activity) served as controls. Cells were negative stained with 1% UAc and subsequently examined with EM.

[17] = system: human red blood cells; assay: Hemolytic activity; format: cell-based; conditions: FIG. 3D
Protocol: Methods: • Human whole blood was obtained from the Houston Gulf Coast Blood Center. • Red blood cells were isolated by the following method: Human blood (in EDTA) was diluted 1:1 with PBS, underlay with 4 mL of Histopaque-1077 (SIGMA) and was centrifuged at 400 g for 30 min. • Red blood cells (RBC) were collected and washed three times with PBS. • 10% suspensions of RBC were prepared with PBS before use. • 50 μL of RBC suspension was added to 2 mL of saponins with different concentration. • The suspension was mixed by vortexing then left to sit at room temperature for 60 minutes. • The suspension was centrifuged at 3000 rpm for 5 min. Absorbance of the supernatant was measured at 540 nm.

[18] = system: Leishmania Major (promastigotes); assay: Cell growth of Leishmania parasites by MTT assay; format: cell-based; conditions: read-out: IC50, cytotoxic to Leishmania Major (promastigotes)
Protocol: Method: Leishmania parasites (Leishmania major: MRHO/SU/59/P/LV39) were grown in culture medium in a T75 flask at room temperature. Promastigotes of Leishmania major (approximately 40 million per ml) were used in the experiment. 1.2 ml cell culture was transferred to a well of the 24-wells plate. Saponin Y10 (0.2 ml in medium) with different concentrations (final 6.25-200 ug/ml) was added to culture and cells were grown for 1-5 days at room temperature. At the end of drug-treatment, 150 ul of MTT (5 mg/ml in PBS) was added to each well and incubated for 4 hours. Formazan formed in cells was dissolved with DMSO and the OD at 490 nm was determined by an ELISA reader.

IC50 [1]: 6.5 µg/mL (≈ 9.69 µM) | IC50 [6]: 6.4 µg/mL (≈ 9.54 µM) | IC50 [9]: 4 µg/mL (≈ 5.96 µM) | IC50 [11]: 13 µg/mL (≈ 19.4 µM) | IC50 [14]: 22 µg/mL (≈ 32.8 µM)
Structure (SMILES): C/C=C(/C)C(=O)O[C@H]1[C@H](OC(=O)/C(C)=C\C)[C@@]23C(CC1(C)C)[C@]1(CCC4[C@@]5(C)CC[C@H](O)C(C)(C)C5CC[C@@]4(C)[C@]1(C)C[C@H]2O)O[C@@H]3O (stereo partly drawn) [ACH-Mb5]
inhibition at 10 µg/mL ([2]; Homo sapiens, ES-2, ES2 cells, 10 ug/ml): 30% | inhibition at 10 µg/mL [3]: 20% | inhibition at 10 µg/mL [4]: 30% | IC50 [5]: 8 µg/mL (≈ 11.9 µM) | inhibition at 10 µg/mL ([7]; Homo sapiens, HepG2, HepG2 cells, 10 ug/ml): 25% | inhibition at 10 µg/mL [8]: 35% | inhibition at 10 µg/mL [10]: 22% | IC50 [12]: 5.7 µg/mL (≈ 8.5 µM) | IC50 [13]: 6 µg/mL (≈ 8.94 µM)

Structure (SMILES): CC1(C)CC2C3=CCC4[C@@]5(C)CC[C@H](O[C@@H]6OC(C(=O)O)[C@@H](O)[C@@H](O[C@@H]7O[C@@H](CO)[C@@H](O)C7O)C6O[C@@H]6OC(CO)[C@H](O)[C@@H](O)C6O)C(C)(C)C5CC[C@@]4(C)[C@]3(C)[C@@H](O)[C@@H](O)[C@@]2(CO)[C@@H](O)[C@@H]1O (stereo partly drawn) [AKOH-Y]
anticancer activity after alkaline hydrolysis [15]: lost anticancer activity | MTT activities of hydrolysed products of compound Y ([15]; FIG. 4C, 4D): lost MTT activities | anticancer activity ([15]; FIG. 4C, even at 120 μg/ml): completely abolishes its anticancer activity | anticancer activity ([15]; even at 120 ug/ml): completely abolishes its anticancer activity | % inhibition of Fibronectin secretion [2]: no effect | % inhibition of Fibronectin secretion ([2]; listed as AKOH): no effect | inhibition effect on Fibronectin secretion ([7]; HepG2 cells, 80 ug/ml): Minimum or No effect | membrane morphology (EM): patches of pits [16]: not | hemolytic activity of hydrolysed products of compound Y [17]: destroyed the hemolytic activity

Structure (SMILES): C/C=C(/C)C(=O)O[C@H]1[C@H](OC(=O)/C(C)=C\C)[C@@]2(CO)C(CC1(C)C)C1=CCC3[C@@]4(C)CC[C@H](O[C@@H]5OC(C(=O)O)[C@@H](O)[C@@H](O[C@@H]6O[C@@H](CO)[C@@H](O)C6O)C5O[C@@H]5OC(CO)[C@H](O)[C@@H](O)C5O)C(C)(C)C4CC[C@@]3(C)[C@]1(C)C[C@H]2O (stereo partly drawn) [Xanifolia Y10, 3-O-[β-galactopyranosyl (1→2)]-α-arabinofuranosyl (1→3)-β-glucuronopyranosyl-21, 22-O-diangeloyl-3β, 16α, 21β, 22α, 28-pentahydroxyolean-12-ene]
IC50 [18]: ~15 µg/mL (≈ 13.3 µM)
